# Assay results from the supplement of paper PMC12463676, “Small-molecule dissolution of stress granules by redox modulation benefits ALS models” (Nature Chemical Biology, 2025).
# Compound: NC(=O)CCCCC1CCSS1 [lipoamide]
# Experiment: thermal stability z-score vs DMSO; higher = more thermally stabilized by treatment
# Conditions: HeLa; lipoamide concentration 100 µM; arsenate co-treatment: 1 mM arsenate 1 h
# Experimental: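 Cellular thermal proteome profiling in HeLa cells. Cells were treated with 100 µM lipoamide for 1 h, with or without 1 mM arsenate for a further 1 h, then heated to ten temperatures (37-66.3 °C), and soluble protein was quantified by TMT mass spectrometry relative to 0.1% DMSO controls. The thermal stability score (sum of log2 fold changes minus the abundance score) was transformed to a z-score; mean of n = 3 experiments.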
# 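Further: each temperature applied for 3 min, abundance score taken as mean log2 fold change at the two lowest temperatures, z-score obtained by mean subtraction and division by SD.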
# Sequence of UniProt O95218 (O95218 whole entry): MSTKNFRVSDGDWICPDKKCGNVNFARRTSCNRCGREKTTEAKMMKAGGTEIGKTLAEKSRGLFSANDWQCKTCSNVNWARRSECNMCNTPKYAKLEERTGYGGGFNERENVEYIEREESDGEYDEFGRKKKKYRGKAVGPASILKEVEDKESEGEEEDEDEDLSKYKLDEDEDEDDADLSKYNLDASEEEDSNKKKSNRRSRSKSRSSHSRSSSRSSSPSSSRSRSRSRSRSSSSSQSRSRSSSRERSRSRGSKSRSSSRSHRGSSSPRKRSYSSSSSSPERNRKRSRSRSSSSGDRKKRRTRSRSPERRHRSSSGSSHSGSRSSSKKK
# Sequence of UniProt P25788 (P25788 whole entry): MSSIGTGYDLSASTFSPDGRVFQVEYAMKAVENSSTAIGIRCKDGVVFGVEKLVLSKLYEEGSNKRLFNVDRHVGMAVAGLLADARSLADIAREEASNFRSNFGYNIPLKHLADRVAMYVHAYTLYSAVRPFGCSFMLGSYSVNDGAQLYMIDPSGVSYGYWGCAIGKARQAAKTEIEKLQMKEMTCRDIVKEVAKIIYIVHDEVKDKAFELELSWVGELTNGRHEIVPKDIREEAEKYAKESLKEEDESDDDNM
# Sequence of UniProt Q96S52 (Q96S52 whole entry): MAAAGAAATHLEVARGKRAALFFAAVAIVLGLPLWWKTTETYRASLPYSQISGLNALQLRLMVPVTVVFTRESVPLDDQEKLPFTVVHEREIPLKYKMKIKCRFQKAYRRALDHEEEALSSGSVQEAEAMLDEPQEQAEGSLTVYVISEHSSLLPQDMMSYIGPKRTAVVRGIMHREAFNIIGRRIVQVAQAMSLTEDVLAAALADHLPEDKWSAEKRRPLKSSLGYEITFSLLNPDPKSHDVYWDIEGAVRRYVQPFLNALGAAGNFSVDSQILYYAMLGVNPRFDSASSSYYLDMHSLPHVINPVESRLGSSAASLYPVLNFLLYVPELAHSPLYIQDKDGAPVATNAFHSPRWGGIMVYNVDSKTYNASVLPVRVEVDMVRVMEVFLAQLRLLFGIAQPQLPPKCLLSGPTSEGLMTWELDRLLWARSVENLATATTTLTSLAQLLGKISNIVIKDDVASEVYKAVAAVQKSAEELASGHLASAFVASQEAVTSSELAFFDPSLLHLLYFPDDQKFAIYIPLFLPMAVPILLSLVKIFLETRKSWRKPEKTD
# Sequence of UniProt Q13444 (Q13444 whole entry): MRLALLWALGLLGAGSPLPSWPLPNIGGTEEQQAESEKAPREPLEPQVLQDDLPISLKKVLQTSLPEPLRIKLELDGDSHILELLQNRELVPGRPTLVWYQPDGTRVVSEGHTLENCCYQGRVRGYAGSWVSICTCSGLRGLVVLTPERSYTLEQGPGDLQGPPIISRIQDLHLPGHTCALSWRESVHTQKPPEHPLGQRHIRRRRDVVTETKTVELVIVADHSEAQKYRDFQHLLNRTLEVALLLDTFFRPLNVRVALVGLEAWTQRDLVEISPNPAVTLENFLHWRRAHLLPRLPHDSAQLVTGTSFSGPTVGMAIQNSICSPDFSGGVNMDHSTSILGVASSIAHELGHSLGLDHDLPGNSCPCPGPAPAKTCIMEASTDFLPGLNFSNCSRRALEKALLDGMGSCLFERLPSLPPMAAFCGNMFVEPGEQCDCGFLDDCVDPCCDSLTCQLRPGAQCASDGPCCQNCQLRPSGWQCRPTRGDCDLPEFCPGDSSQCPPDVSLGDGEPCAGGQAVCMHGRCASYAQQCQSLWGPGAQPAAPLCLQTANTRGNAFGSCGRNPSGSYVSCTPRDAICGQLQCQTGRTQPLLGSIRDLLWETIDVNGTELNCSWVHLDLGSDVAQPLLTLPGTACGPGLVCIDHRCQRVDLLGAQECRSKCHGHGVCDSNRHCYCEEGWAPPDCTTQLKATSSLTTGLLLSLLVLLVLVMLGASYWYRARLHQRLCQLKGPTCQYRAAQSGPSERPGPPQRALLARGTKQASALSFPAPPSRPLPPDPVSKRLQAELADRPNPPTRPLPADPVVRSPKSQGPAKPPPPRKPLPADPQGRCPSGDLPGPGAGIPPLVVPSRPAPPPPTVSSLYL
# Sequence of UniProt O15305 (O15305 whole entry): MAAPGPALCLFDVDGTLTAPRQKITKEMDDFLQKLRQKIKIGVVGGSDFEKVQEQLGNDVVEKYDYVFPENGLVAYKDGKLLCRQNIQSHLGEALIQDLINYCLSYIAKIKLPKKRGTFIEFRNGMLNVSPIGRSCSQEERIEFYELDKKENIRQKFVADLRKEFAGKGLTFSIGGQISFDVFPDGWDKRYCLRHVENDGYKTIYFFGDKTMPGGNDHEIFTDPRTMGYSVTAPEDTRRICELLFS
# Sequence of UniProt P62316 (P62316 whole entry): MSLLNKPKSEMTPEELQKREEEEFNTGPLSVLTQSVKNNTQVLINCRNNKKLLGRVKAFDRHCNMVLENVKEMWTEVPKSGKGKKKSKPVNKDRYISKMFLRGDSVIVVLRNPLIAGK
# Sequence of UniProt O75449 (O75449 whole entry): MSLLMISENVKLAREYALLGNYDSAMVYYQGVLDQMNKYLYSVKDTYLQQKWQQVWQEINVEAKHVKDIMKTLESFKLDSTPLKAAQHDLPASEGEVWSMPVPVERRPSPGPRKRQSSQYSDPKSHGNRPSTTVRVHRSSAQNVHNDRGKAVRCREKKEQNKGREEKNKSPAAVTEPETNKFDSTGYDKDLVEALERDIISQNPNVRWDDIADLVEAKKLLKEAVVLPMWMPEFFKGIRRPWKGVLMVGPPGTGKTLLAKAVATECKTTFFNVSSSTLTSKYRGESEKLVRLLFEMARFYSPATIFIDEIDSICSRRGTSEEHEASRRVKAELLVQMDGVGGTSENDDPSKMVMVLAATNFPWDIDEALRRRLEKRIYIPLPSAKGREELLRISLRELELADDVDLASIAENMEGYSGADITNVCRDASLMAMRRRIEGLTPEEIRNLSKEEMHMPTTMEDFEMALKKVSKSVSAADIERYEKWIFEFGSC
# Sequence of UniProt Q12805 (Q12805 whole entry): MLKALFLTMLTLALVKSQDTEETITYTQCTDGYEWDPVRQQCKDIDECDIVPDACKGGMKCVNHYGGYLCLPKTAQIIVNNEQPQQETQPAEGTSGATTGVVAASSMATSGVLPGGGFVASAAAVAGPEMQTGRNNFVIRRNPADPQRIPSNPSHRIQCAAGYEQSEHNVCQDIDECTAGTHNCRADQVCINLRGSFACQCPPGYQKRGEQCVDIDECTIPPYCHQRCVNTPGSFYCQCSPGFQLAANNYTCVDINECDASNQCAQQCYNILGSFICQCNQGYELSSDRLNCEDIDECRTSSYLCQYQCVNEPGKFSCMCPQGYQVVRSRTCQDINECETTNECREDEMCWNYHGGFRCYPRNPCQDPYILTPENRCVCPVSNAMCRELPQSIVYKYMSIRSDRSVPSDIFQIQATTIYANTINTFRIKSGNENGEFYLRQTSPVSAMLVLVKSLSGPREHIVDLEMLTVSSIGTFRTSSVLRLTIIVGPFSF
# Sequence of UniProt P26368 (P26368 whole entry): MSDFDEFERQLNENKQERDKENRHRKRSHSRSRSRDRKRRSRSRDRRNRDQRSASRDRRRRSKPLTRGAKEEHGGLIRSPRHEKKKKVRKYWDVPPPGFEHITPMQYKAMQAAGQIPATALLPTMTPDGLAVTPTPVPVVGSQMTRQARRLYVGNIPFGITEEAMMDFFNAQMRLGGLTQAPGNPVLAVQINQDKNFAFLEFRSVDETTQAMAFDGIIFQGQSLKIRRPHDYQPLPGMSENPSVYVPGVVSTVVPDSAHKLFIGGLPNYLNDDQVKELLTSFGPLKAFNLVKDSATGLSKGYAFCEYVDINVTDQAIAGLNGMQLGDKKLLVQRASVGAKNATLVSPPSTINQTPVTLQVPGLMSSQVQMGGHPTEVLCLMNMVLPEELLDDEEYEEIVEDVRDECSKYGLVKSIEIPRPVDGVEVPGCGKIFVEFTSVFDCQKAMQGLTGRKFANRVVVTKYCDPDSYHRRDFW
# Sequence of UniProt Q12904 (Q12904 whole entry): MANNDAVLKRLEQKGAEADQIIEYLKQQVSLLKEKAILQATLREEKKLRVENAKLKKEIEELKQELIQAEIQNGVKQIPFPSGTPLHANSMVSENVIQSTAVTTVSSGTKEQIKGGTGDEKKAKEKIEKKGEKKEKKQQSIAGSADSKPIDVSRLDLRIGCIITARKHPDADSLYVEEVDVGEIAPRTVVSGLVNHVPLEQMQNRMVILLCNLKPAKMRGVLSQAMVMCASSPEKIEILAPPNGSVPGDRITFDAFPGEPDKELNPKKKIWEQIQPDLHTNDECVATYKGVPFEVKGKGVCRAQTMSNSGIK
# Sequence of UniProt O60906 (O60906 whole entry): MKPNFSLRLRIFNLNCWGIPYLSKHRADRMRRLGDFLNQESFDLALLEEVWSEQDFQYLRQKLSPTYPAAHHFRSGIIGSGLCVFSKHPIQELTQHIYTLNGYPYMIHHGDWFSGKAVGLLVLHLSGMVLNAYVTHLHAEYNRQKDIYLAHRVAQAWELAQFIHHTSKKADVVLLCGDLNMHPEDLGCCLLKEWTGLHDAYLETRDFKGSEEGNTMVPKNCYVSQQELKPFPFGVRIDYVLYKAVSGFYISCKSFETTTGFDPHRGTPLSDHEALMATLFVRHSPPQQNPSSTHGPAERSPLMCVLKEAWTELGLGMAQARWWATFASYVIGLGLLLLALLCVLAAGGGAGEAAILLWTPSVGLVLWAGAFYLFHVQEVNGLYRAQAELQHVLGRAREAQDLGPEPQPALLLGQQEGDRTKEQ
# Sequence of UniProt Q9UMY1 (Q9UMY1 whole entry): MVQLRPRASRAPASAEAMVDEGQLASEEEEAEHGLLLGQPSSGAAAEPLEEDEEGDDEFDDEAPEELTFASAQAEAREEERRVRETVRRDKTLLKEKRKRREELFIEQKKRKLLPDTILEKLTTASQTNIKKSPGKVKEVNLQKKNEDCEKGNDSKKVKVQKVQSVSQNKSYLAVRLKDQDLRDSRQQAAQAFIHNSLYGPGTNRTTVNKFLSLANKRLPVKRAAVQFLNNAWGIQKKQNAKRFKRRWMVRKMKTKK
row,Target,thermal stability z-score
1,SMPD2 (UniProt O60906),-0.297
2,PMM2 (UniProt O15305),-0.186
3,MARVELD2 (UniProt Q8N4S9),-0.452
4,MRPL54 (UniProt Q6P161),-0.648
5,ADAM15 (UniProt Q13444),-1.37
6,TMEM237 (UniProt Q96Q45),0.0486
7,ZRANB2 (UniProt O95218),-0.755
8,ZNF451 (UniProt Q9Y4E5),0.0272
9,U2AF2 (UniProt P26368),-0.241
10,SNRPD2 (UniProt P62316),1.08
11,OXSM (UniProt Q9NWU1),-0.024
12,PDHB (UniProt P11177),0.134
13,ORC6 (UniProt Q9Y5N6),-0.246
14,MRPL3 (UniProt P09001),-0.851
15,SKA3 (UniProt Q8IX90),-0.0726
16,PSMA3 (UniProt P25788),0.613
17,KATNA1 (UniProt O75449),-0.664
18,AIMP1 (UniProt Q12904),0.288
19,ACTN4 (UniProt O43707),0.262
20,GTF2I (UniProt P78347),-0.117
21,SERPINH1 (UniProt P50454),-3.31
22,CD320 (UniProt Q9NPF0),1.65
23,C14ORF166 (UniProt Q9Y224),0.126
24,MED14 (UniProt O60244),-0.0798

row,Target,thermal stability z-score
1,PRKAR2A (UniProt P13861),0.114
2,PGM1 (UniProt P36871),-0.181
3,NOL7 (UniProt Q9UMY1),0.225
4,PTPN3 (UniProt P26045),-0.085
5,PPIH (UniProt O43447),0.218
6,PIGS (UniProt Q96S52),-2.47
7,GPX8 (UniProt Q8TED1),-4.37
8,EFEMP1 (UniProt Q12805),-3.26
9,PEBP1 (UniProt P30086),0.203
10,SPDL1 (UniProt Q96EA4),0.746
11,DNAJC11 (UniProt Q9NVH1),0.0767
12,NF1 (UniProt P21359),-0.487
13,MBP (UniProt P02686),1.96
14,OSBPL2 (UniProt Q9H1P3),-0.0428
15,FAM162A (UniProt Q96A26),0.884
16,RETSAT (UniProt Q6NUM9),0.0873
17,SETMAR (UniProt Q53H47),-0.298
18,PDDC1 (UniProt Q8NB37),0.604
19,HSD17B8 (UniProt Q92506),0.281
20,PON2 (UniProt Q15165),-4.17
21,SLC4A1AP (UniProt Q9BWU0),0.445
22,CYP1B1 (UniProt Q16678),0.0413
23,TUBGCP4 (UniProt Q9UGJ1),-0.259
24,RFC2 (UniProt P35250),-0.0963

row,Target,thermal stability z-score
1,CTSL (UniProt P07711),-0.924
2,OSBPL11 (UniProt Q9BXB4),-0.766
3,PLBD2 (UniProt Q8NHP8),-0.0663
4,UBE2N (UniProt P61088),-0.524
5,AMFR (UniProt Q9UKV5),-0.269
6,B4GALT4 (UniProt O60513),-0.0137
7,ERLEC1 (UniProt Q96DZ1),-2.84
8,RAB27A (UniProt P51159),0.277
9,THOC7 (UniProt Q6I9Y2),0.192
10,TUBGCP5 (UniProt Q96RT8),-0.335
11,STAT3 (UniProt P40763),0.0355
12,TRMT13 (UniProt Q9NUP7),-0.376
13,SLC44A2 (UniProt Q8IWA5),-0.0733
14,NFKBIB (UniProt Q15653),-0.344
15,EAF1 (UniProt Q96JC9),1.02
16,ZNF703 (UniProt Q9H7S9),0.173
17,MKNK1 (UniProt Q9BUB5),-0.146
18,GLT8D2 (UniProt Q9H1C3),-1.22
19,PDCD6 (UniProt O75340),1.77
20,CFL1 (UniProt P23528),0.501
21,TTC9C (UniProt Q8N5M4),-0.988
22,MED4 (UniProt Q9NPJ6),0.794
23,COX15 (UniProt Q7KZN9),-0.206

# Same assay, conditions: HeLa; lipoamide concentration 100 µM; arsenate co-treatment: none
row,Target,thermal stability z-score
1,SMPD2 (UniProt O60906),-0.186
2,PMM2 (UniProt O15305),0.197
3,MARVELD2 (UniProt Q8N4S9),0.477
4,MRPL54 (UniProt Q6P161),0.074
5,ADAM15 (UniProt Q13444),-1.49
6,TMEM237 (UniProt Q96Q45),0.457
7,ZRANB2 (UniProt O95218),-0.097
8,ZNF451 (UniProt Q9Y4E5),0.0565
9,U2AF2 (UniProt P26368),-0.169
10,SNRPD2 (UniProt P62316),0.689
11,OXSM (UniProt Q9NWU1),0.0818
12,PDHB (UniProt P11177),0.282
13,ORC6 (UniProt Q9Y5N6),-0.0524
14,MRPL3 (UniProt P09001),-0.0275
15,SKA3 (UniProt Q8IX90),0.132
16,PSMA3 (UniProt P25788),0.719
17,KATNA1 (UniProt O75449),0.155
18,AIMP1 (UniProt Q12904),0.163

row,Target,thermal stability z-score
1,ACTN4 (UniProt O43707),0.364
2,GTF2I (UniProt P78347),0.0929
3,SERPINH1 (UniProt P50454),-2.2
4,CD320 (UniProt Q9NPF0),0.874
5,C14ORF166 (UniProt Q9Y224),0.251
6,MED14 (UniProt O60244),-0.176
7,PRKAR2A (UniProt P13861),0.239
8,PGM1 (UniProt P36871),-0.205
9,NOL7 (UniProt Q9UMY1),-0.325
10,PTPN3 (UniProt P26045),-0.294
11,PPIH (UniProt O43447),-0.34
12,PIGS (UniProt Q96S52),-2.43
13,GPX8 (UniProt Q8TED1),-5.4
14,EFEMP1 (UniProt Q12805),-2.96
15,PEBP1 (UniProt P30086),0.0137
16,SPDL1 (UniProt Q96EA4),0.706
17,DNAJC11 (UniProt Q9NVH1),-0.132
